Here are results for 1 compound from US9862684B2, “Modulation of K2P channels” (The Regents of the University of California, priority 2013, dated 2018).

The target in this assay is T1, K2P10.1 (TREK-2) (Mus musculus, UniProt Q8BUW1).
T1 construct: expressed in transfected cells; host or cells: Xenopus oocytes
T1 sequence (Q8BUW1 1-535): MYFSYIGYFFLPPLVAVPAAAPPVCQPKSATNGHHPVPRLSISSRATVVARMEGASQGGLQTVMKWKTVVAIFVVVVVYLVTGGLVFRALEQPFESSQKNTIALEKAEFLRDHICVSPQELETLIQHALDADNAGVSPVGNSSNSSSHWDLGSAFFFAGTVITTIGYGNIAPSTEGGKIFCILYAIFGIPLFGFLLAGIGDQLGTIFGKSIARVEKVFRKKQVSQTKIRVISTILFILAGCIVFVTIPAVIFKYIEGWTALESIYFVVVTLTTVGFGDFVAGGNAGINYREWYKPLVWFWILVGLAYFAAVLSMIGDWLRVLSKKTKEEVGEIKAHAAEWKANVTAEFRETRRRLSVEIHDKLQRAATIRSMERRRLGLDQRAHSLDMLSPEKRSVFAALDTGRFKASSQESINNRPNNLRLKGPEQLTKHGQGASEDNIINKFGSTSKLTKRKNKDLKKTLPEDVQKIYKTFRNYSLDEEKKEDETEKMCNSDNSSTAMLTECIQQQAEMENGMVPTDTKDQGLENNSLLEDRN
As to the kind of experiment: Two-electrode voltage clamp, Xenopus oocytes expressing K2P10.1 (TREK-2). It counts as cell-based, Murine. How it is done:
FIG. 7 ML67-33 is a selective activator of heat- and mechanosensitive K2P channels. a-f, Exemplar I-V curves showing the effect of ML67-33 on a, K2P10.1 (TREK-2), b, K2P4.1 (TRAAK), c, K2P3.1 (TASK-1), d, K2P9.1 (TASK-3), e, K2P5.1 (TASK-2), and f, K2P18.1 (TRESK) measured in Xenopus oocytes in 2 mM [K^+]o pH 7.4. Currents were elicited by a voltage ramp from −150 to 50 mV, from a holding potential of −80 mV. g, Quantification of the effect of ML67-33 on the indicated channels. Data (mean±s.e., n≧6, N≧2) was normalized to basal channel activity and fitted to the Hill equation. […] Error bars indicate s.e., n≧6, N≧2.
Murine K2P channels were cloned into pGEMHE/pMO {Bagriantsev, 2011}, IRES-GFP (Invitrogen), or pYES2-MET25 (high copy 2μ, URA3) {Minor, 1999} for expression in oocytes, HEK-293T cells, and yeast, respectively, using standard molecular biology procedures, and verified by DNA sequencing.
Two-electrode voltage clamp recordings were performed from defolliculated stage V-VI Xenopus oocytes 24-48 hours after injection with 0.015-6.0 ng cRNA, using microelectrodes (0.3-3.0 MΩ) filled with 3M KCl. Data was acquired using the GeneClamp 500B (MDS Analytical Technologies) amplifier controlled by the pClamp software (Molecular Devices), and digitized at 1 kHz using Digidata 1332A (MDS Analytical Technologies). Recording solutions (mM): 2K (96 NaCl, 2 KCl, 1.8 CaCl2, 2 MgCl2), 90K (90 KCl, 8 NaCl, 1.8 CaCl2, 2 MgCl2), were buffered 5 mM HEPES pH 7.4. For K2P recordings, currents we elicited by a 1 second long ramp from −150 to +50 mV from a holding potential of −80 mV (2K), or −100 to +50 mV from a holding potential of 0 mV (90K). For KCNQ2 recordings, currents were elicited by a step protocol from −120 to 60 mV, in 20 mV increments, from a holding potential of −80 mV. Patch-clamp recordings from HEK-293T cells were performed using microelectrodes (2-3 MΩ) filled with 1M KCl. Data was acquired using the Axopatch 200B amplifier controlled by pClamp software, and digitized at 1 kHz using Digidata 1332A. Recording solutions (mM): intracellular (145 KCl, 5 EGTA, 3 MgCl2,) extracellular (150 NaCl, 5 KCl, 3 MgCl2, 1 CaCl2) were buffered with 5 mM HEPES pH 7.2 and 7.4, respectively. Currents were elicited by a 1 second long ramp from −150 to +50 mV from a holding potential of −80 mV. Data were fitted with a modified Hill's equation: I=Imin+(Imax−Imin)/(1+10^((Log EC50−Log [C])*H)), where Imax and Imin are maximal and minimal current values, respectively, EC50 is a half-maximal effective concentration of the compound, and H is the Hill coefficient.
There are six K2P subgroups {Noel, 2011} (FIG. 11). […]
Background: In two-electrode clamp one electrode senses voltage and the other passes current.

As for `CC1(C)c2cc(Cl)ccc2N(CCc2nnn[nH]2)c2ccc(Cl)cc21` [ML67-33, 2,7-dichloro-9,9-dimethyl-10-[2-(1H-tetrazol-5-yl)ethyl]acridine], the “Emax (fold)” value (FIG. 7 legend: at 100 μM) was found to be 11.4±1.8 fold. Also, the concentration giving a half-maximal response (EC50) (Xenopus oocytes, 2 mM [K+]o pH 7.4) amounted to 30.2 ± 1.4 µM.

By EC50 is commonly meant the concentration needed to bring the measured effect to its halfway point. High values mean a less potent agent, low ones a more potent agent.
